# Test system: SARS-CoV-2
# Test: Antiviral activity against SARS-CoV-2 USA-WA1/2020 infected in human HeLa cells harbouring ACE2 assessed as reduction in cytopathic effect pretreated with cells followed by viral infection and measured after 24 hrs by fluorescence based analysis
# Assay type: functional, organism-based
# Details: Severe acute respiratory syndrome coronavirus 2, USA-WA1/2020, HeLa
row,Compound,EC50
1,CC1(C)[C@@H]2[C@@H](C(=O)N[C@H](C=O)C[C@@H]3CCNC3=O)N(C(=O)c3cc4cccc(F)c4[nH]3)C[C@@H]21,720 nM
2,COc1cccc2[nH]c(C(=O)N3C[C@H]4[C@@H]([C@H]3C(=O)N[C@H](C=O)C[C@@H]3CCNC3=O)C4(C)C)cc12,8800 nM
3,CC1(C)[C@@H]2[C@@H](C(=O)N[C@H](C=O)C[C@@H]3CCNC3=O)N(C(=O)C3(c4ccccc4)CC3)C[C@@H]21,196 nM
4,CC(C)(C)CCC(=O)N1C[C@H]2[C@@H]([C@H]1C(=O)N[C@H](C=O)C[C@@H]1CCNC1=O)C2(C)C,690 nM
5,Cc1cccc2[nH]c(C(=O)N3C[C@H]4[C@@H]([C@H]3C(=O)N[C@H](C=O)C[C@@H]3CCNC3=O)C4(C)C)cc12,1400 nM
6,Cc1cccc([C@@H](C)C(=O)N2C[C@H]3[C@@H]([C@H]2C(=O)N[C@H](C=O)C[C@@H]2CCNC2=O)C3(C)C)c1,170 nM
7,CC1(C)[C@@H]2[C@@H](C(=O)N[C@H](C=O)C[C@@H]3CCNC3=O)N(C(=O)C3(c4ccccc4)CCCC3)C[C@@H]21,110 nM
8,C[C@H](C(=O)N1C[C@H]2[C@@H]([C@H]1C(=O)N[C@H](C=O)C[C@@H]1CCNC1=O)C2(C)C)C1CCCCC1,470 nM
9,CCc1cccc2[nH]c(C(=O)N3C[C@H]4[C@@H]([C@H]3C(=O)N[C@H](C=O)C[C@@H]3CCNC3=O)C4(C)C)cc12,630 nM
10,CC1(C)[C@@H]2[C@@H](C(=O)N[C@H](C=O)C[C@@H]3CCNC3=O)N(C(=O)C3(c4cccc(Cl)c4)CC3)C[C@@H]21,90 nM
11,CC(C)(C(=O)N1C[C@H]2[C@@H]([C@H]1C(=O)N[C@H](C=O)C[C@@H]1CCNC1=O)C2(C)C)c1ccccc1,343 nM
12,C[C@@H](C(=O)N1C[C@H]2[C@@H]([C@H]1C(=O)N[C@H](C=O)C[C@@H]1CCNC1=O)C2(C)C)c1ccccc1,300 nM
13,CC(C)c1ccc(F)c2[nH]c(C(=O)N3C[C@H]4[C@@H]([C@H]3C(=O)N[C@H](C=O)C[C@@H]3CCNC3=O)C4(C)C)cc12,120 nM
14,C[C@@H](C(=O)N1C[C@H]2[C@@H]([C@H]1C(=O)N[C@H](C=O)C[C@@H]1CCNC1=O)C2(C)C)C1CCCCC1,300 nM
15,CC1(C)[C@@H]2[C@@H](C(=O)N[C@H](C=O)C[C@@H]3CCNC3=O)N(C(=O)c3cc4c(F)cccc4[nH]3)C[C@@H]21,1800 nM
16,CC1CCC(CC(=O)N2C[C@H]3[C@@H]([C@H]2C(=O)N[C@H](C=O)C[C@@H]2CCNC2=O)C3(C)C)CC1 (some centres undefined),160 nM
17,Cc1cccc2cc(C(=O)N3C[C@H]4[C@@H]([C@H]3C(=O)N[C@H](C=O)C[C@@H]3CCNC3=O)C4(C)C)[nH]c12,1300 nM
18,CC1(C)[C@@H]2[C@@H](C(=O)N[C@H](C=O)C[C@@H]3CCNC3=O)N(C(=O)C3(O)CCCCC3)C[C@@H]21,2200 nM

row,Compound,EC50
1,CC1(C)C[C@@H](C(=O)N[C@H](C=O)C[C@@H]2CCNC2=O)N(C(=O)c2cc3ccccc3[nH]2)C1,7100 nM
2,CC1(C)[C@@H]2[C@@H](C(=O)N[C@H](C=O)C[C@@H]3CCNC3=O)N(C(=O)c3cc4cccc(C#N)c4[nH]3)C[C@@H]21,410 nM
3,CC1(C)[C@@H]2[C@@H](C(=O)N[C@H](C=O)C[C@@H]3CCNC3=O)N(C(=O)Cc3ccccc3)C[C@@H]21,530 nM
4,CC1(C)[C@@H]2[C@@H](C(=O)N[C@H](C=O)C[C@@H]3CCNC3=O)N(C(=O)c3cc4ccc(F)cc4[nH]3)C[C@@H]21,1800 nM
5,CC1(C)[C@@H]2[C@@H](C(=O)N[C@H](C=O)C[C@@H]3CCNC3=O)N(C(=O)c3cc4cccc(C(F)(F)F)c4[nH]3)C[C@@H]21,240 nM
6,O=C[C@H](C[C@@H]1CCNC1=O)NC(=O)[C@@H]1CC2(CC2)CN1C(=O)c1cc2ccccc2[nH]1,9200 nM
7,CC1(C)[C@@H]2[C@@H](C(=O)N[C@H](C=O)C[C@@H]3CCNC3=O)N(C(=O)c3cc4cccc(Cl)c4[nH]3)C[C@@H]21,300 nM
8,COc1cccc2cc(C(=O)N3C[C@H]4[C@@H]([C@H]3C(=O)N[C@H](C=O)C[C@@H]3CCNC3=O)C4(C)C)[nH]c12,1300 nM
9,CC(C)Oc1cccc2[nH]c(C(=O)N3C[C@H]4[C@@H]([C@H]3C(=O)N[C@H](C=O)C[C@@H]3CCNC3=O)C4(C)C)cc12,250 nM
10,CC(C)(C)CC(=O)N1C[C@H]2[C@@H]([C@H]1C(=O)N[C@H](C=O)C[C@@H]1CCNC1=O)C2(C)C,1100 nM
11,CC1(C)[C@@H]2[C@@H](C(=O)N[C@H](C=O)C[C@@H]3CCNC3=O)N(C(=O)CC3CCCCC3)C[C@@H]21,340 nM
12,O=C[C@H](C[C@@H]1CCNC1=O)NC(=O)[C@@H]1C[C@@H](C2CCCCC2)CN1C(=O)c1cc2ccccc2[nH]1,770 nM
13,CC(C)c1cccc2[nH]c(C(=O)N3C[C@H]4[C@@H]([C@H]3C(=O)N[C@H](C=O)C[C@@H]3CCNC3=O)C4(C)C)cc12,370 nM
14,CC1(C)[C@@H]2[C@@H](C(=O)N[C@H](C=O)C[C@@H]3CCNC3=O)N(C(=O)c3cc4ccccc4[nH]3)C[C@@H]21,2500 nM
15,CC(C)c1ccc(Cl)c2[nH]c(C(=O)N3C[C@H]4[C@@H]([C@H]3C(=O)N[C@H](C=O)C[C@@H]3CCNC3=O)C4(C)C)cc12,270 nM
16,CC1(C)[C@@H]2[C@@H](C(=O)N[C@H](C=O)C[C@@H]3CCNC3=O)N(C(=O)c3cc4c(C#N)cccc4[nH]3)C[C@@H]21,8500 nM
17,CC1(C)[C@@H]2[C@@H](C(=O)N[C@H](C=O)C[C@@H]3CCNC3=O)N(C(=O)c3cc4cc(F)ccc4[nH]3)C[C@@H]21,4000 nM

# Test system: SARS-CoV-2
# Test: Selectivity ratio of EC50 for antiviral activity against SARS-CoV-2 USA-WA1/2020 infected in human HeLa cells harbouring ACE2 to IC50 for inhibition of C terminal 6 his tagged SARS-CoV-2 main protease expressed in Escherichia coli BL-21-Gold(DE3) cells
# Assay type: functional
# Details: not given
row,Compound,Selectivity ratio
1,CC1(C)C[C@@H](C(=O)N[C@H](C=O)C[C@@H]2CCNC2=O)N(C(=O)c2cc3ccccc3[nH]2)C1,30
2,O=C[C@H](C[C@@H]1CCNC1=O)NC(=O)[C@@H]1CC2(CC2)CN1C(=O)c1cc2ccccc2[nH]1,30
3,O=C[C@H](C[C@@H]1CCNC1=O)NC(=O)[C@@H]1C[C@@H](C2CCCCC2)CN1C(=O)c1cc2ccccc2[nH]1,30
4,CC1(C)[C@@H]2[C@@H](C(=O)N[C@H](C=O)C[C@@H]3CCNC3=O)N(C(=O)c3cc4ccccc4[nH]3)C[C@@H]21,30

# — ChEMBL document CHEMBL5550108, “Exploiting high-energy hydration sites for the discovery of potent peptide aldehyde inhibitors of the SARS-CoV-2 main protease with cellular antiviral activity” (Bioorg Med Chem, 2024)
